Assay results taken from US20250129430A1, “HIGH ATP-AFFINITY PROTEIN AS THERAPEUTIC TARGET FOR INTRACTABLE CANCER MOLECULAR SUBTYPES AND INHIBITOR THEREOF” (VeraVerse Co., Ltd., priority 2021, published 2025).

Key:
Assay type in all cases: cell-based, human
[1] = test system: AGS; assay: Cell viability drug screen, 12-point dose-response AUC; conditions: AGS cells; 72 hours; 12-point dose-response
In short: (§1)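 Viability: luminescence (Glo kit, 15 min RT), normalized to 0.5% DMSO vehicle. Dosing: half-log, 12 concentrations, 72 h. Cells: 5×10^3/well, treated 24 h after plating. Value: trapezoidal AUC, mean of repeats.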

[2] = test system: Hs746T; assay: as above; conditions: Hs746T cells; 72 hours; 12-point dose-response
In short: (§2)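 AUC comes from 12-point half-log dose–response curves, normalized to DMSO-treated cells and integrated trapezoidally, repeats averaged. Luminescent viability read after 72 h compound exposure at 37 °C; cells plated 5×10^3 per well 24 h before dosing.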

[3] = test system: KATO3; assay: as above; conditions: KATO3 cells; 72 hours; 12-point dose-response
In short: as §2

[4] = test system: MKN1; assay: as above; conditions: MKN1 cells; 72 hours; 12-point dose-response
In short: as §2

[5] = test system: MKN28; assay: as above; conditions: MKN28 cells; 72 hours; 12-point dose-response
In short: as §2

[6] = test system: MKN45; assay: as above; conditions: MKN45 cells; 72 hours; 12-point dose-response
In short: as §1

[7] = test system: MKN74; assay: as above; conditions: MKN74 cells; 72 hours; 12-point dose-response
In short: as §1

[8] = test system: NCC19; assay: as above; conditions: NCC19 cells; 72 hours; 12-point dose-response
In short: as §2

[9] = test system: NCC20; assay: as above; conditions: NCC20 cells; 72 hours; 12-point dose-response
In short: as §2

[10] = test system: NCC24; assay: as above; conditions: NCC24 cells; 72 hours; 12-point dose-response
In short: as §2

[11] = test system: NCC59; assay: as above; conditions: NCC59 cells; 72 hours; 12-point dose-response
In short: as §2

[12] = test system: NCI_N87; assay: as above; conditions: NCI_N87 cells; 72 hours; 12-point dose-response
In short: as §2

[13] = test system: OCUM1; assay: as above; conditions: OCUM1 cells; 72 hours; 12-point dose-response
In short: as §2

[14] = test system: SK4; assay: as above; conditions: SK4 cells; 72 hours; 12-point dose-response
In short: as §2

[15] = test system: SNU16; assay: as above; conditions: SNU16 cells; 72 hours; 12-point dose-response
In short: as §2

[16] = test system: SNU1750; assay: as above; conditions: SNU1750 cells; 72 hours; 12-point dose-response
In short: as §2

[17] = test system: SNU1967; assay: as above; conditions: SNU1967 cells; 72 hours; 12-point dose-response
In short: as §2

[18] = test system: SNU1; assay: as above; conditions: SNU1 cells; 72 hours; 12-point dose-response
In short: as §2

[19] = test system: SNU216; assay: as above; conditions: SNU216 cells; 72 hours; 12-point dose-response
In short: as §1

[20] = test system: SNU484; assay: as above; conditions: SNU484 cells; 72 hours; 12-point dose-response
In short: as §2

[21] = test system: SNU601; assay: as above; conditions: SNU601 cells; 72 hours; 12-point dose-response
In short: as §2

[22] = test system: SNU620; assay: as above; conditions: SNU620 cells; 72 hours; 12-point dose-response
In short: as §2

[23] = test system: SNU638; assay: as above; conditions: SNU638 cells; 72 hours; 12-point dose-response
In short: as §2

[24] = test system: SNU668; assay: as above; conditions: SNU668 cells; 72 hours; 12-point dose-response
In short: as §2

[25] = test system: SNU719; assay: as above; conditions: SNU719 cells; 72 hours; 12-point dose-response
In short: as §1

[26] = test system: YCC11; assay: as above; conditions: YCC11 cells; 72 hours; 12-point dose-response
In short: as §2

[27] = test system: YCC2; assay: as above; conditions: YCC2 cells; 72 hours; 12-point dose-response
In short: as §2

[28] = test system: YCC3; assay: as above; conditions: YCC3 cells; 72 hours; 12-point dose-response
In short: as §2

[29] = test system: FU97; assay: as above; conditions: FU97 cells; 72 hours; 12-point dose-response
In short: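 Trapezoidal AUC of a 12-point, DMSO-normalized dose-response curve. Luminescent viability was measured after 72 h of exposure at 37° C to half-log serial dilutions (0.5% DMSO control), dosed 24 h after plating FU97 cells at 5×10^3 per well.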

[30] = test system: SEM-type gastric cancer cell line; assay: Cell viability drug screen, AUC summary over SEM-type lines
Protocol: An FDA-approved small-molecule pharmacological compound (#L1300) and an anticancer compound for research (#L2000) were purchased from Selecckchem and a 10 mM solution was prepared in DMSO. A total of 1,345 compounds were tested the cell viability of the seven EMT gastric cancer cell lines.
Cells cultured for cell-based drug assay were inoculated into a 96-well white optical plate (Corning) at 5×10^3 cells per well. After 24 hours after inoculation, a 2.5 MJT (primary screen) or a half-log 12-serial diluent (secondary screen) of the pharmacological compound contained in DMSO is added to the cells with a robot using a BioMek FXp liquid processor (Beckman) to add to the cells at 50 mM. The final drug concentration in the 5 ns range and the DMSO specification control (0.5%) were calculated. The cells were then further incubated at 37° C. in a 5% CO2 incubator for 72 hours prior to measuring cell viability using the extra-GLO assay kit (Promega). The luminescent properties were measured after 15 min incubation at room temperature using a plate stacker equipped with a plate stacker. The normalized viability for the DMSO-based control was measured to generate a cell line-specific 12-point dose-response curve for each pharmacological compound, and then the area under the curve (AUC) was calculated using a trapezoidal method.

[31] = test system: non-SEM-type gastric cancer cell line; assay: Cell viability drug screen, AUC summary over non-SEM-type lines; conditions: in the non-SEM-type gastric cancer cell line

Row | Compound | area under the viability curve (AUC), normalized [1] | area under the viability curve (AUC), normalized [2] | area under the viability curve (AUC), normalized [3] | area under the viability curve (AUC), normalized [4] | area under the viability curve (AUC), normalized [5] | area under the viability curve (AUC), normalized [6] | area under the viability curve (AUC), normalized [7] | area under the viability curve (AUC), normalized [8] | area under the viability curve (AUC), normalized [9] | area under the viability curve (AUC), normalized [10] | area under the viability curve (AUC), normalized [11] | area under the viability curve (AUC), normalized [12] | area under the viability curve (AUC), normalized [13] | area under the viability curve (AUC), normalized [14] | area under the viability curve (AUC), normalized [15] | area under the viability curve (AUC), normalized [16] | area under the viability curve (AUC), normalized [17] | area under the viability curve (AUC), normalized [18] | area under the viability curve (AUC), normalized [19] | area under the viability curve (AUC), normalized [20] | other results
1 | COCCn1c2c([n+](Cc3cnccn3)c1C)C(=O)c1ccccc1C2=O [YM155] | −1.512 | −1.376 | −0.3081 | −2.0115 | −1.021 | 0.6792 | −1.305 | 3.608 | 0 | −0.6903 | 0.1386 | 0.4168 | 1.685 | −1.314 | 2.497 | −2.624 | −0.2044 | 1.212 | 0.09958 | −2.56 | area under the viability curve (AUC), normalized [21]: 1.661; area under the viability curve (AUC), normalized [22]: 1.29; area under the viability curve (AUC), normalized [23]: 0.5099; area under the viability curve (AUC), normalized [24]: −0.2961; area under the viability curve (AUC), normalized [25]: 3.789; area under the viability curve (AUC), normalized [26]: −1.419; area under the viability curve (AUC), normalized [27]: −0.4228; area under the viability curve (AUC), normalized [28]: 1.325; area under the viability curve (AUC), normalized [29]: 1.301; normalized viability AUC [30]: negative; AUC value [31]: high
2 | COc1ncc(-c2ccc3nccc(-c4ccnnc4)c3c2)cc1NS(=O)(=O)c1ccc(F)cc1F [GSK2126458] | −2.286 | −0.063 | 3.911 | −1.1278 | 0.15 | 0.05353 | 0 | 0.4665 | −1.107 | −1.197 | 2.2975 | −1.3463 | 1.227 | −2.466 | 0.6494 | −0.5071 | 1.044 | −0.6492 | −0.4775 | 0.4641 | area under the viability curve (AUC), normalized [21]: 0.1047; area under the viability curve (AUC), normalized [22]: −0.7945; area under the viability curve (AUC), normalized [23]: 0.9531; area under the viability curve (AUC), normalized [24]: 1.587; area under the viability curve (AUC), normalized [25]: 5.211; area under the viability curve (AUC), normalized [26]: −1.373; area under the viability curve (AUC), normalized [27]: −0.9259; area under the viability curve (AUC), normalized [28]: 0.9745; area under the viability curve (AUC), normalized [29]: −1.393; normalized viability AUC [30]: negative; AUC value [31]: high
